# Structures can show the parent of a compound that is named as a salt.
# Key:
# [1] = target: T1, LPO (Bos taurus, UniProt P80025); test: Nitration of salbutamol by LPO/H2O2/NO2−, A410; type: biochemical, bovine; details: 100 μM salbutamol, 67 nM LPO, 4 mM H2O2, 3.5 mM NaNO2
# T1 construct: Lactoperoxidase (LPO) from bovine milk (EC 1.11.1.7); purchased Sigma-Aldrich Co. (St. Louis, Mo.); host or cells: bovine milk (natural source)
# Description: Spectrophotometric Measurements. Spectra are measured using an Agilent diode array spectrophotometer model 8453 (Agilent Technologies, Inc., Santa Clara, Calif.). Nitration of salbutamol is studied by measuring absorption spectra at designated time points following the start of the reaction. Samples are prepared in 100 mM phosphate buffers (pH 7.0). All buffers contained DTPA (100 μM) or are pretreated with Chelex-100 before use, and measurements are performed at ambient temperature of 20° C. Typically, the reaction is started by the addition of a small aliquot of H2O2 or the desired peroxidase. Time course measurements are carried out following changes in absorbance at 410 nm in 30 second intervals versus absorbance at 800 nm, where none of the compounds absorb.
# Ascorbate (AscH^−) is an effective natural antioxidant protecting airways from oxidative injury. Cross et al., (1994) Environ. Health Perspect. 102 (suppl. 10):185-191. Its concentration in the respiratory tract lining fluid is estimated to be near 100 μM (Id.). We examine the effect of AscH^− on nitration of 100 μM salbutamol by 67 nM LPO, 4 mM H2O2, and 3.5 mM of NaNO2 by measuring absorption at 410 nm. […] The duration of the lag period depends on AscH^− concentration. […] See, e.g., Reszka et al. (1999) Free Radic. Biol. & Med. 26:669-678.
# As noted earlier, methimazole is an antithyroid drug, an effective inhibitor of LPO activity. 100 μM of salbutamol is reacted with 73 nM LPO, 3.5 mM NaNO2, and 4 mM H2O2 at pH buffer 7.0 in the presence of 0, 27, 55, and 109 μM methimazole (shown in FIG. 9, section A, traces a-d, respectively). Traces c and d also indicate by arrow when additional LPO is added to the system. […] In contrast to effects exerted by AscH^− or SCN^−, methimazole-dependent inhibition is permanent and is probably due to inactivation of the enzyme, since a second dose of LPO reactivates the process (FIG. 9, section A, trace c).
# Dapsone, an anti-inflammatory and anti-leprotic agent, is a potent inhibitor of LPO and MPO. See, e.g., Kettle et al. (1991) Biochem. Pharmacol. 41(10):1485-1492; Bozeman et al. (1992) Biochem. Pharmacol. 44(2):553-563. 97 μM of salbutamol is reacted with 65 nM LPO, 3.4 mM NaNO2, and 4 mM H2O2 at pH buffer 7.0 in the presence of 0, 2.5, 5, 10, 50, and 100 μM dapsone (shown in FIG. 10, traces a-f, respectively). The arrows in traces d and e of FIG. 10 indicate where additional LPO is added to the system. […] Dapsone at 50 μM inhibited nitration by approximately 86%. Given the high concentrations of NaNO2 and H2O2 used in this system, dapsone appears to be a potent blocker of nitration.
# The extent of nitration is expressed as a change in ΔA410 versus control (dapsone omitted) taken as 100% after 10, 30, and 60 minute reactions for LPO, MPO, and EPO nitrating systems, respectively. Results equal the means±SE of at least two measurements. In the LPO system, 100 μM of salbutamol, 3.4 mM of NaNO2, 4 mM of H2O2, and 65 nM of LPO is used. In the MPO system, 50 μM of salbutamol, 5.0 mM of NaNO2, 5 mM of H2O2, and 0.2 U/mL of MPO is used. In the EPO system, 50 μM of salbutamol, 5 mM of NaNO2, 2 mM of H2O2, and 0.075 U/mL of EPO is used. All reactions were carried out in pH 7.0 phosphate buffer containing DMSO (5% v/v). The term “nitrophenols” includes nitrosalbutamol (N-Sal) and salbutamol-derived nitrophenol (N—ArOH).
# [2] = target: T2, MPO (Homo sapiens, UniProt P05164); test: Oxidation of β2-agonists by MPO/H2O2, spectrophotometric ΔA315; type: biochemical; set-up: Myeloperoxidase (MPO) from human leucocytes (lyophilized powder); purchased Axxora, LLC (San Diego, Calif.); host or cells: human leucocytes (natural source); details: 100 μM AscH−, 200 mU/mL MPO, 50 μM H2O2
# T2 sequence (P05164 279-745 limits assumed): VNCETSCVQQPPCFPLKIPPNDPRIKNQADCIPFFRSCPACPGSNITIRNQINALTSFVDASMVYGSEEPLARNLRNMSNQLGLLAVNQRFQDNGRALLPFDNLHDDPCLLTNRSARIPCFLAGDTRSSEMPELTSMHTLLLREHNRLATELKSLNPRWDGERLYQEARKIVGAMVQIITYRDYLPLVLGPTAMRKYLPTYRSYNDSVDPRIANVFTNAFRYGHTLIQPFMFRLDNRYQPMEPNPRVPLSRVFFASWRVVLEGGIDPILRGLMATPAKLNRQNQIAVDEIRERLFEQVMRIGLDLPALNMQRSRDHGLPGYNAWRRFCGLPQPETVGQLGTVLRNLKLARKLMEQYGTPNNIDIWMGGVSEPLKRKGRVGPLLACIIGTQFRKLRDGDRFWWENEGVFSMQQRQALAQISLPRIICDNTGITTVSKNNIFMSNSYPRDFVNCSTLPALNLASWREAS
# T2 sequence (P05164 165-273 limits assumed): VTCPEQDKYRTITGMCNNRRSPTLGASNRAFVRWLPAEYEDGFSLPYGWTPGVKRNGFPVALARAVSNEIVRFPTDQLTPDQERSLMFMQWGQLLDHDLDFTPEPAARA
# Description: Spectrophotometric Measurements. Spectra are measured using an Agilent diode array spectrophotometer model 8453 (Agilent Technologies, Inc., Santa Clara, Calif.). Oxidation of β2-agonists is studied by measuring absorption spectra at designated time points following reaction starts. Samples are prepared in 50 mM acetate buffer (pH 5.0), 50 and 100 mM phosphate buffers (pH 7.0 and 8.0) and 100 mM Tris/HCl (pH 9.19). All buffers contain DTPA (100 and 200 μM) and measurements are performed at an ambient temperature of 20° C. The reaction is started by the addition of a small aliquot of H2O2 (2, 5 or 10 μL), or glucose oxidase (1 μL), if glucose/glucose oxidase was used to generate H2O2, to a sample containing a studied compound, peroxidase and, if required, an inhibiting co-factor. Time course measurements are carried out following changes in absorbance at 315 nm in 15 second intervals versus absorbance at 800 nm, where none of the compounds absorb. The 315 nm wavelength is chosen because β2-agonists' oxidation products absorb intensely near 315 nm, and because it is close to the absorption maximum of tyrosine dimers.
# The concentration of AscH^− in airway fluid was estimated to be near 100 μM (Id.), so we use concentrations within this physiological range. […] AscH^− affects oxidation of salbutamol and fenoterol similarly, causing delay in the net oxidation of both drugs. A315 increases after a lag period, the duration of which depends on AscH^− concentration. Net oxidation of the drugs occurs only when AscH^− is consumed. […] This is understandable given that the concentration of H2O2 was only 50 μM and the peroxide was used to oxidize both the drugs and AscH^−. […] The proposed mechanisms of inhibition are reactions A and B, shown below, which reveal that recovery of the drug occurs at the expense of AscH^−, which is oxidized to the ascorbate radical (A^•−).
# […]. The extent of oxidation is expressed as ΔA315±SE versus control (in %) during 22 minutes of reaction at 20° C. Values are the mean of at least duplicate determinations.
# [3] = system: murine airway smooth muscle cells; test: cAMP production in airway smooth muscle cells, fluorescent detection assay; type: cell-based; details: 15 minutes, read-out: EC50, stimulation of cAMP synthesis
# Description: For these studies, cells are grown to near-confluence in 96-well plates. After washing with PBS, cells were treated for 15 minutes with either PBS vehicle or the indicated concentration of isoproterenol. The reaction is then halted using the supplied stop buffer, after which the resultant sample is processed for fluorescent detection per the manufacturer's instructions. The cAMP content for each sample is determined by extrapolating values to a standard curve prepared with known concentrations of cAMP.
# [4] = human
# Description: Exhaled breath condensate (“EBC”) samples. EBC samples are collected during 10 min of quiet breathing through a single-use disposable RTube collector (Respiratory Research, Inc., Charlottesville, Va., USA) while subjects are wearing a nose clip. The aluminum sleeve of the device is cooled to an initial temperature of −20° C. prior to collection. After collection, a plunger is used to pool the condensed material within the tube into a single sample (about 1.0 ml). Samples are stored in the reaction tube at a temperature of −80° C. until thawed and processed for analysis.
# Mass Spectrometry. The experiment is performed on a Thermo Fisher Scientific LTQ-FT, a hybrid instrument consisting of a linear ion trap and a Fourier transform ion cyclotron resonance mass spectrometer. Liquid chromatography separation of the sample components utilizes a Waters XBridge™ C18 3.5 μm 2.1×100 mm column, Finnigan Surveyor MS pump, and Finnigan Micro AS autosampler. A 200 μL/min gradient elution of water and acetonitrile, both containing 0.1% formic acid, occurs as follows: 5% to 32% acetonitrile in first eight minutes followed by a rapid rise to 95% acetonitrile within the next minute, held at 95% for an additional seven minutes. […]
# [5] = target: T2, MPO; test: EPR of ascorbate radicals during oxidation of β2-agonists by MPO/H2O2; type: biochemical; set-up: Myeloperoxidase (MPO) from human leucocytes (lyophilized powder); purchased Axxora, LLC (San Diego, Calif.); host or cells: human leucocytes (natural source); details: 100 μM ascorbate, MPO 0.01 U/250 μL, H2O2 39 μM, pH 7.0
# Description: (§1) The sample is transferred to a flat aqueous EPR cell and recording is started one minute after initiation of the reaction. The spectra of DMPO adducts are recorded using the same parameters as above but the sweeping rate is 8 mT/41.92 s. The EPR spectra of ascorbate radicals are obtained using microwave power 5 mW, modulation amplitude 0.05 mT, scan rate 4 mT/41.92 s. EPR spectra shown are an average of 5 scans and represent results of a typical experiment.
# Formation of Asc^•− during oxidation of β2-agonists by MPO/H2O2 in the presence of 100 μM AscH^− is investigated by EPR. […] Spectrum A is the EPR of 100 μM ascorbate without additives. Sprectrun B is the EPR spectrum of 100 μM ascorbate in the presence of MPO (0.01 U/250 μL) and H2O2 (39 μM). Spectra C and D are the EPR spectra of 100 μM ascorbate in the presence of MPO (0.01 U/250 μ), H2O2 (39 μM), and 40 μM and 100 μM of salbutamol, respectily. Spectrum E is the EPR spectrum of 100 μM ascorbate in the presence of MPO (0.01 U/250 μL), H2O2 (39 μM) and 20 μM of fenoterol. All reactions occur in pH 7.0 buffer (50 mM) containing DTPA (0.2 mM).
# [6] = target: T2, MPO; test: EPR spin trapping of GS radicals (DMPO/SG adduct) with MPO/H2O2; type: biochemical; set-up: Myeloperoxidase (MPO) from human leucocytes (lyophilized powder); purchased Axxora, LLC (San Diego, Calif.); details: 2 μM fenoterol, 4 mM GSH, 18 mM DMPO, pH 7.0
# Description: as §1
# Spectrum e is the same reaction as spectrum d with the exception that no GSH is used.
# The EPR spectrum generated in the presence of 2 μM fenoterol (FIG. 3, section B, spectrum a) is approximately a two-fold more intense than that observed in the presence of 80 μM salbutamol (FIG. 3, section A, spectrum b). This confirms the higher reactivity of a metabolite(s) derived from fenoterol. […] The higher stimulatory action of fenoterol, when compared to that of salbutamol, implies that the compound's resorcinol moiety may play a dominating role in the interaction with GSH. The proposed cycle of redox reactions involving fenoterol, AscH^− and GSH is depicted in reaction B, presented earlier.
compound,measurement,setting,value
"O=C1O[C@H]([C@@H](O)CO)C(O)=C1O [AscH^−, ascorbic acid]",Nitration of salbutamol by LPO/H2O2/NO2− (A410 versus time),"[1]; AscH− at near physiological concentrations (55, 88, 109 μM)",only transiently inhibits
same,Nitration of salbutamol by LPO/H2O2/NO2− (A410 versus time),[1]; ascorbate ˜1 mM,completely prevents
same,Oxidation of fenoterol by MPO/H2O2 (A315 versus time),[2]; 200 μM fenoterol,completely inhibited
same,Oxidation of salbutamol by MPO/H2O2 (A315 versus time),[2]; 1 mM salbutamol,completely inhibited
Salbutamol hemisulfate,EC50,[3],24.8 nM
same,Salbutamol transformation in vivo (nitrophenol of m/z 255.13 in breath condensate),[4],undergoes oxidation and nitration
same,"EPR spectrum of ascorbate radical, more intense than with MPO/H2O2 alone",[5]; 40 μM salbutamol,approximately 76%
same,"EPR spectrum of ascorbate radical, more intense than with MPO/H2O2 alone",[5]; 100 μM salbutamol,~117%
"CC(Cc1ccc(O)cc1)NCC(O)c1cc(O)cc(O)c1 (stereo not shown) [fenoterol, fenoterol hydrobromide]","EPR spectrum of DMPO/SG adduct, intensity relative to 80 μM salbutamol",[6],two-fold
same,"EPR spectrum of ascorbate radical, more intense than with MPO/H2O2 alone",[5]; 20 μM fenoterol,270%
